Laboratory results reported in patent US10463772B2, “Prostaglandin and prostamide drug delivery systems and intraocular therapeutic uses thereof” (ALLERGAN, INC., priority 2008, dated 2019).

Tests used:
[1] = Heat stability of latanoprost (biological activity); format: physicochemical; conditions: on heating
[2] = cited from earlier work

In the case of `CC(C)OC(=O)CCC/C=C\C[C@@H]1[C@@H](CC[C@@H](O)CCc2ccccc2)[C@H](O)C[C@@H]1O` [latanoprost], the “Temperature above which latanoprost begins to lose biological activity” value [1] is listed as “about 56 °C”, the “Solubility in acetone, ethanol, ethyl acetate, isopropanol, methanol and octanol” value [2] is listed as “freely soluble” and the Solubility in acetonitrile [2] is listed as “very soluble”. The Solubility in water [2] was “practically insoluble”.
